According to patent US20250277012A1 (Protagonist Therapeutics, Inc., priority 2021, published 2025):
Read-outs that look alike come from different tables or passages of the source. Positions of bridges follow the written chain, without caps; N, C: chain ends. Non-standard residues stand in square brackets, D forms with d. Residues, ends and D or L forms follow the SMILES beside them. Groups on a side chain read outwards from the residue. *: point of attachment. CH3O(CH2CH2O)11CH2CH2CO = COCCOCCOCCOCCOCCOCCOCCOCCOCCOCCOCCOCCC(=O)*; X1 = C[N+](C)(CCNC(=O)CCCCCCCCCCCCCCCCC(=O)O)CC(=O)*; C18 diacid = O=C(O)CCCCCCCCCCCCCCCCC(=O)*; Dip = N[C@H](C(=O)O)C(c1ccccc1)c1ccccc1; Palmitoyl = CCCCCCCCCCCCCCCC(=O)*; NMeF = CN[C@@H](Cc1ccccc1)C(=O)O; β3hF = N[C@H](CC(=O)O)Cc1ccccc1; X3 = CCCCCCCCCCCCCCCC(=O)NCCC*; dNMeL = CN[C@H](CC(C)C)C(=O)O; NMeK = CN[C@@H](CCCCN)C(=O)O; αMeK = C[C@](N)(CCCCN)C(=O)O; Isovaleryl = CC(C)CC(=O)*; dNMeS = CN[C@H](CO)C(=O)O; hCys = N[C@@H](CCS)C(=O)O; Dap = NC[C@H](N)C(=O)O; AEEA = NCCOCCOCC(=O)O; Ahx = NCCCCCC(=O)O

What was measured:
[1] = biological target: T1, ferroportin (Homo sapiens, UniProt Q9NP59); experiment: T47D cell-based ferroportin internalization assay in presence of mouse serum albumin (MSA); set-up: a human breast carcinoma adherent cell line which endogenously expresses ferroportin; host or cells: T47D
T1 sequence (Q9NP59 1-571): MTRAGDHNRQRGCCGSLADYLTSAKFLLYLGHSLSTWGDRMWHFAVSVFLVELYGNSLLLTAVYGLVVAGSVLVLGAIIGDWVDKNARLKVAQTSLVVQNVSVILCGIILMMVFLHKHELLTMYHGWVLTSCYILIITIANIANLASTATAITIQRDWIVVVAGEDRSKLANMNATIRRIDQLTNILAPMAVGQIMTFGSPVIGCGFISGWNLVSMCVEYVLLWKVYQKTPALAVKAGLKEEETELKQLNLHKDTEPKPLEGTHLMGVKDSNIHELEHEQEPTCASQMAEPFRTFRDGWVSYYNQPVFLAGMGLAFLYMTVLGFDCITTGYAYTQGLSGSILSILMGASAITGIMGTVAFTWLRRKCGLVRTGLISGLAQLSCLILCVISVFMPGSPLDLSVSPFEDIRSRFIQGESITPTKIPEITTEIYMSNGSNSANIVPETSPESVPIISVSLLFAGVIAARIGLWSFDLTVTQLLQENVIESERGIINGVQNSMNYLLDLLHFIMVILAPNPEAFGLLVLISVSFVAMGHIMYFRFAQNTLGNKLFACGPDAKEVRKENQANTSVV
Method in brief: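 Peptide potency for inducing ferroportin internalization was measured in T47D cells in the presence of serum albumin. Cells grown in RPMI with fetal bovine serum were seeded in 96-well plates at 80-100 k cells per well in 100 ul and rested overnight. Dilution series of test peptides were preincubated 30 min at room temperature, then added to the cells after the medium was aspirated.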

[2] = biological target: T1, ferroportin; experiment: FPN activity assay: ferroportin-GFP internalization/degradation in HEK293 cells; assay type: cell-based; set-up: expressed in transfected cells; settings: read-out: FPN IC50
Protocol: Following internalization, the ferroporin protein is degraded.
A retro inverse peptide is a peptide with a reversed sequence in all D amino acids. An example is that Hy-Glu-Thr-His-NH2 becomes Hy-DHis-DThr-DGlu-NH2. The EC50 of these reference compounds for ferroportin internalization/degradation was determined according to the FPN activity assay described above. These peptides served as control standards.

[3] = Table 6E, T47D internalization assay with MSA
[4] = Table 6E, ferroportin-GFP internalization/degradation, at least 18 hours incubation
[5] = T47D internalization assay in presence of mouse serum albumin (MSA), Table 6E
[6] = ferroportin-GFP internalization/degradation, HEK293 cells, Table 6E

| SMILES | IC50 [1, 5] | DC50 [2, 6] | further results |
| --- | --- | --- | --- |
| CCCCCCCCCCCCCCCC(=O)NCCCC[C@H]1C(=O)N[C@@H](C(c2ccccc2)c2ccccc2)C(=O)N[C@@H](C(N)=O)CCCCNC(=O)CC[C@H](NC(=O)CC(C)C)C(=O)N[C@@H]([C@@H](C)O)C(=O)N[C@@H](Cc2c[nH]cn2)C(=O)N[C@@H](C(c2ccccc2)c2ccccc2)C(=O)N2CCC[C@H]2C(=O)N[C@H]2CSSC[C@H](NC2=O)C(=O)N1C [compound 142] (Isovaleryl-ETH[Dip]PCC[NMeK](Palmitoyl)[Dip][dK]-NH2; lactam 1-10; disulfide 6-7) | – | – | IC50 [1, 3]: 0.01 to 0.1 µM; DC50 [2, 4]: 0.001 to 0.01 µM |
| CC(C)CC(=O)N[C@@H](CCC(=O)O)C(=O)N[C@H](C(=O)N[C@@H](Cc1c[nH]cn1)C(=O)N[C@H](C(=O)N1CCC[C@H]1C(=O)N[C@H]1CCSSCC[C@@H](C(=O)N[C@@H](CCCCNC(=O)COCCOCCNC(=O)COCCOCCNC(=O)[C@H](CN)NC(=O)CCCCCCCCCCCCCCCCC(=O)O)C(=O)N[C@H](CC(=O)N[C@H](CCCCN)C(N)=O)Cc2ccccc2)NC1=O)C(c1ccccc1)c1ccccc1)[C@@H](C)O [compound 268] (Isovaleryl-ETH[Dip]P[hCys][hCys]K([AEEA-AEEA-Dap-C18 diacid])[β3hF][dK]-NH2; disulfide 6-7) | 0.01 to 0.1 µM | 0.01 to 0.1 µM | – |
| COC(=O)CC[C@H](NC(=O)CC(C)C)C(=O)N[C@H](C(=O)N[C@@H](Cc1c[nH]cn1)C(=O)N[C@H](C(=O)N1CCC[C@H]1C(=O)N[C@H]1CSSC[C@@H](C(=O)N(C)[C@@H](CCCCNC(=O)CCCCCNC(=O)C[N+](C)(C)CCNC(=O)CCCCCCCCCCCCCCCCC(=O)O)C(=O)N[C@H](C(=O)N[C@H](CCCCN)C(N)=O)C(c2ccccc2)c2ccccc2)NC1=O)C(c1ccccc1)c1ccccc1)[C@@H](C)O [compound 232] (Isovaleryl-E(OMe)TH[Dip]PCC[NMeK]([Ahx-X1])[Dip][dK]-NH2; disulfide 6-7) | 0.01 to 0.1 µM | 0.01 to 0.1 µM | – |
| CCCCCCCCCCCCCCCC(=O)NCCCSCC[C@H](NC(=O)[C@@H]1CSSC[C@H](NC(=O)[C@@H]2CCCN2C(=O)[C@@H](NC(=O)[C@H](Cc2cnc[nH]2)NC(=O)[C@@H](NC(=O)[C@H](CCC(=O)O)NC(=O)CC(C)C)[C@@H](C)O)C(c2ccccc2)c2ccccc2)C(=O)N1)C(=O)N[C@H](C(=O)N[C@H](CCCCN)C(N)=O)C(c1ccccc1)c1ccccc1 [compound 162] (Isovaleryl-ETH[Dip]PCC[hCys](X3)[Dip][dK]-NH2; disulfide 6-7) | – | – | IC50 [1, 3]: 0.001 to 0.01 µM; DC50 [2, 4]: 0.01 to 0.1 µM |
| CC(C)CC(=O)N[C@@H](CCC(=O)O)C(=O)N[C@H](C(=O)N[C@@H](Cc1cnc[nH]1)C(=O)N[C@H](C(=O)N1CCC[C@H]1C(=O)N[C@H]1CSSC[C@@H](C(=O)N(C)[C@@H](CCCCNC(=O)COCCOCCNC(=O)COCCOCCNC(=O)[C@H](CN)NC(=O)CCCCCCCCCCCCCCCCC(=O)O)C(=O)N[C@H](CC(=O)N[C@H](CCCCN)C(=O)N(C)[C@H](CC(C)C)C(N)=O)Cc2ccccc2)NC1=O)C(c1ccccc1)c1ccccc1)[C@@H](C)O [compound 249] (Isovaleryl-ETH[Dip]PCC[NMeK]([AEEA-AEEA-Dap-C18 diacid])[β3hF][dK][dNMeL]-NH2; disulfide 6-7) | 0.01 to 0.1 µM | 0.01 to 0.1 µM | – |
| COCCOCCOCCOCCOCCOCCOCCOCCOCCOCCOCCOCCC(=O)NCCCC[C@@H](NC(=O)C[C@H](Cc1ccccc1)NC(=O)[C@H](CCCCNC(=O)COCCOCCNC(=O)COCCOCCNC(=O)[C@H](CN)NC(=O)CCCCCCCCCCCCCCCCC(=O)O)N(C)C(=O)[C@@H]1CSSC[C@H](NC(=O)[C@@H]2CCCN2C(=O)[C@@H](NC(=O)[C@H](Cc2c[nH]cn2)NC(=O)[C@@H](NC(=O)[C@H](CCC(=O)O)NC(=O)CC(C)C)[C@@H](C)O)C(c2ccccc2)c2ccccc2)C(=O)N1)C(N)=O [compound 255] (Isovaleryl-ETH[Dip]PCC[NMeK]([AEEA-AEEA-Dap-C18 diacid])[β3hF][dK](CH3O(CH2CH2O)11CH2CH2CO)-NH2; disulfide 6-7) | 0.01 to 0.1 µM | 0.01 to 0.1 µM | – |
| CCCCCCCCCCCCCCCC(=O)NCCCCCC(=O)NCCCC[C@H](NC(=O)[C@@H]1CSSC[C@H](NC(=O)[C@@H]2CCCN2C(=O)[C@@H](NC(=O)[C@H](Cc2c[nH]cn2)NC(=O)[C@@H](NC(=O)[C@H](CCC(=O)OC)NC(=O)CC(C)C)[C@@H](C)O)C(c2ccccc2)c2ccccc2)C(=O)N1)C(=O)N[C@H](CC(=O)N[C@H](CCCCN)C(N)=O)Cc1ccccc1 [Compd 40] (Isovaleryl-E(OMe)TH[Dip]PCCK([Ahx-Palmitoyl])[β3hF][dK]-NH2; disulfide 6-7) | – | – | IC50 ([1]; T47D cells, 0.5% mouse serum albumin, 1 hr incubation): 0.001 to 0.01 µM; DC50 ([2]; ferroportin-GFP HEK293 cells, at least 18 hours): 0.01 to 0.1 µM |
| CC(C)CC(=O)N[C@@H](CCC(=O)O)C(=O)N[C@H](C(=O)N[C@@H](Cc1cnc[nH]1)C(=O)N[C@H](C(=O)N1CCC[C@H]1C(=O)N[C@H]1CSSC[C@@H](C(=O)N(C)[C@@H](CCCCNC(=O)COCCOCCNC(=O)COCCOCCNC(=O)[C@H](CN)NC(=O)CCCCCCCCCCCCCCCCC(=O)O)C(=O)N[C@H](CC(=O)N[C@H](CCCCN)C(=O)N(C)[C@H](CO)C(N)=O)Cc2ccccc2)NC1=O)C(c1ccccc1)c1ccccc1)[C@@H](C)O [compound 247] (Isovaleryl-ETH[Dip]PCC[NMeK]([AEEA-AEEA-Dap-C18 diacid])[β3hF][dK][dNMeS]-NH2; disulfide 6-7) | 0.001 to 0.01 µM | 0.01 to 0.1 µM | – |
| COC(=O)CCC(CCCC(C)C)C(=O)N[C@H](C(=O)N[C@@H](Cc1c[nH]cn1)C(=O)N[C@H](C(=O)N1CCC[C@H]1C(=O)N[C@H]1CSSC[C@@H](C(=O)N(C)[C@@H](CCCCNC(=O)CCCCCNC(=O)C[N+](C)(C)CCNC(=O)CCCCCCCCCCCCCCCCC(=O)O)C(=O)N[C@H](C(=O)N[C@H](CCCCN)C(N)=O)C(c2ccccc2)c2ccccc2)NC1=O)C(c1ccccc1)c1ccccc1)[C@@H](C)O (single isomer, unassigned) [compound 138] | – | – | IC50 [1, 3]: 0.1 to 0.5 µM; DC50 [2, 4]: 0.01 to 0.1 µM |

The next lines start with results.

| IC50 [1, 5] | DC50 [2, 6] | SMILES | further results |
| --- | --- | --- | --- |
| 0.01 to 0.1 µM | 0.01 to 0.1 µM | CC(C)CC(=O)N[C@@H](CCC(=O)O)C(=O)N[C@H](C(=O)N[C@@H](Cc1c[nH]cn1)C(=O)N[C@H](C(=O)N1CCC[C@H]1C(=O)N[C@H]1CSSC[C@@H](C(=O)N(C)[C@@H](CCCCNC(=O)COCCOCCNC(=O)COCCOCCNC(=O)[C@H](CN)NC(=O)CCCCCCCCCCCCCCCCC(=O)O)C(=O)N(C)[C@@H](Cc2ccccc2)C(=O)N[C@H](CCCCN)C(N)=O)NC1=O)C(c1ccccc1)c1ccccc1)[C@@H](C)O [compound 291] (Isovaleryl-ETH[Dip]PCC[NMeK]([AEEA-AEEA-Dap-C18 diacid])[NMeF][dK]-NH2; disulfide 6-7) | – |
| 0.01 to 0.1 µM | 0.001 to 0.01 µM | CC(C)CC(=O)N[C@@H](CCC(=O)O)C(=O)N[C@H](C(=O)N[C@@H](Cc1c[nH]cn1)C(=O)N[C@H](C(=O)N1CCC[C@H]1C(=O)N[C@H]1CSSC[C@@H](C(=O)N(C)[C@@H](CCCCNC(=O)COCCOCCNC(=O)COCCOCCNC(=O)[C@H](CN)NC(=O)CCCCCCCCCCCCCCCCC(=O)O)C(=O)N[C@H](C(=O)N[C@H](CCCCN)C(N)=O)C(c2ccccc2)c2ccccc2)NC1=O)C(c1ccccc1)c1ccccc1)[C@@H](C)O [compound 293] (Isovaleryl-ETH[Dip]PCC[NMeK]([AEEA-AEEA-Dap-C18 diacid])[Dip][dK]-NH2; disulfide 6-7) | – |
| 0.01 to 0.1 µM | 0.01 to 0.1 µM | CC(C)CC(=O)N[C@@H](CCC(=O)O)C(=O)N[C@H](C(=O)N[C@@H](Cc1c[nH]cn1)C(=O)N[C@H](C(=O)N1CCC[C@H]1C(=O)N[C@H]1CSSC[C@@H](C(=O)N(C)[C@@H](CCCCNC(=O)COCCOCCNC(=O)COCCOCCNC(=O)[C@H](CN)NC(=O)CCCCCCCCCCCCCCCCC(=O)O)C(N)=O)NC1=O)C(c1ccccc1)c1ccccc1)[C@@H](C)O [compound 294] (Isovaleryl-ETH[Dip]PCC[NMeK]([AEEA-AEEA-Dap-C18 diacid])-NH2; disulfide 6-7) | – |
| 0.01 to 0.1 µM | 0.01 to 0.1 µM | CC(C)CC(=O)N[C@@H](CCC(=O)O)C(=O)N[C@H](C(=O)N[C@@H](Cc1c[nH]cn1)C(=O)N[C@H](C(=O)N1CCC[C@H]1C(=O)N[C@H]1CSSC[C@@H](C(=O)N[C@@](C)(CCCCNC(=O)COCCOCCNC(=O)COCCOCCNC(=O)[C@H](CN)NC(=O)CCCCCCCCCCCCCCCCC(=O)O)C(=O)N[C@H](CC(=O)N[C@H](CCCCN)C(N)=O)Cc2ccccc2)NC1=O)C(c1ccccc1)c1ccccc1)[C@@H](C)O [compound 302] (Isovaleryl-ETH[Dip]PCC[αMeK]([AEEA-AEEA-Dap-C18 diacid])[β3hF][dK]-NH2; disulfide 6-7) | – |
